From patent US7608622B2, “Imidazo[4,5-b]pyrazinone inhibitors of protein kinases” (Janssen Pharmaceutica NV, priority 2004, dated 2009) come the findings set out here.

The assay deals with T1, Aurora-2 (Homo sapiens, UniProt O14965).
T1 construct: autophosphorylation of Aurora-2 (residues 125-391)
T1 sequence (O14965 125-391): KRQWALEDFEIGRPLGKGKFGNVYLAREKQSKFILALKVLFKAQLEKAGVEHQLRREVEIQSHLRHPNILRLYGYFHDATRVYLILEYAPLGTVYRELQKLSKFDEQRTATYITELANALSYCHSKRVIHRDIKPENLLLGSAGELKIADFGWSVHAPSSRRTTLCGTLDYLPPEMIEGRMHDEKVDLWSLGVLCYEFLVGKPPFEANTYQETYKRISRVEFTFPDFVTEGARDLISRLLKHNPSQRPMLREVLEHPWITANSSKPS
The assay is described as follows: Aurora-2 Enzymatic Assay (ELISA-based). The assay is classed as biochemical. The settings on record: phosphorylated Aurora-2 (residues 125-391), Histone H3 Ser-10 phosphorylation, averages of three independent measurements; read-out: Aurora-2 IC50 Enzyme. As for the experimental part:
In vitro assays were run to measure potency of Aurora-2 kinase inhibition by selected compounds of Formula I.
Aurora-2 Enzymatic Assay. An ELISA-based enzymatic assay was used to determine the compound potency for Aurora-2. In this assay, phosphorylated Aurora-2 (Pi-Aurora-2) catalyzes the ATP-dependent phosphorylation of Ser-10 of Histone H3. Pi-Aurora-2 was produced by autophosphorylation of Aurora-2 (residues 125-391) by 1 mM ATP in the presence of 10 mM MgCl2. The assay buffer used was 100 mM HEPES, pH 7.5, 1 mM DTT, 0.01% (v/v) Tween-20. Compounds were diluted in assay buffer containing 4% DMSO just prior to the assay. • Procedure. High-binding 96-well ELISA plates (Costar 9018) were coated overnight at 4° C. with 10 μg/ml human Histone H3 (Upstate) in PBS (100 μl/well). The following day, the plates were emptied and blocked with 1% BSA in PBS (150 μl/well) for 1 h at 37° C. At the end of the incubation, plates were washed 3 times with 0.01% Tween-20 in PBS (300 μl/well). 50 μl of compound were dispensed to each well followed by addition of 20 μl 10 mM MgCl2 and 20 μl 50 μM ATP (Sigma). The reaction was initiated by addition of 10 μl 30 nM Pi-Aurora-2. […] The reaction was quenched with 9 μl 50 mM EDTA and the plates were washed 5 times with 0.01% Tween-20 in PBS (300 μl/well). The phospho-histone H3 (Ser10) 6G3 monoclonal antibody (Cell Signaling) was then diluted 2,000-fold with 1% BSA in PBS, and was added to the plates (100 μl/well). Following 1 h incubation at 37° C., the plates were washed as described above. The HRP-conjugated secondary antibody (goat anti-mouse Ig(H+ L)-HRP human absorbed, Southern Biotechnology Associates, Inc.) was diluted 20,000-fold with 1% BSA in PBS and was added to the plates (100 μl/well). The plates were incubated for 1 h at 37° C. and then washed 5 times with 0.01% Tween-20 in PBS (300 μl/well). 100 μl/well TMB, SureBlue Reserve (KPL) were added. After ca. 5-6 min, each well received 100 μl 1 M HCl and the OD450 was measured with a SpectraMax Plus microplate reader (Molecular Devices). Under these conditions, absorbance values for positive and negative controls were ca. 0.1 and 1.7, respectively, and were used to define the 100% and 0% inhibition of the Aurora-2 reaction. The IC50 values reported (Table 1) are the averages of three independent measurements.
For the molecule `COc1cc(-c2cnc3[nH]c(=O)n([C@@H](C)c4ccccc4)c3n2)cc(OC)c1OC` [Compound 1, 1-((S)-(−)-1-Phenylethyl)-6-(3,4,5-trimethoxyphenyl)-1,3-dihydroimidazo[4,5-b]pyrazin-2-one], the IC50 is < 500 nM.
Under `COc1cc(-c2cnc3[nH]c(=O)n([C@H](C)c4ccccc4)c3n2)cc(OC)c1OC` [Compound 2, 1-((R)-(+)-1-Phenylethyl)-6-(3,4,5-trimethoxyphenyl)-1,3-dihydro-imidazo[4,5-b]pyrazin-2-one] stands > 1000 nM.
As for `COc1cc(-c2cnc3[nH]c(=O)n(Cc4ccccc4)c3n2)cc(OC)c1OC` [Compound 3, 1-Benzyl-6-(3-4,5-trimethoxyphenyl)-1,3-dihydroimidazo[4,5-b]pyrazin-2-one], the IC50 was < 500 nM.
Under `C[C@@H](c1ccccc1)n1c(=O)[nH]c2ncc(-c3ccc4[nH]ccc4c3)nc21` [Compound 4, 6-(1H-Indol-5-yl)-1-((S)-(−)-1-phenylethyl)-1,3-dihydroimidazo[4,5-b]pyrazin-2-one] stands > 1000 nM.
Then `Cc1noc(C)c1-c1cnc2[nH]c(=O)n([C@@H](C)c3ccccc3)c2n1` [Compound 5, 6-(3,5-Dimethylisoxazol-4-yl)-1-((S)-(−)-1-phenylethyl)-1,3-dihydro-imidazo[4,5-b]pyrazin-2-one], with > 1000 nM; and `C[C@@H](c1ccccc1)n1c(=O)[nH]c2ncc(-c3cccc(C#N)c3)nc21` [Compound 6, 3-[2-Oxo-3-((S)-(−)-1-phenylethyl)-2,3-dihydro-1H-imidazo[4,5-b]pyrazin-5-yl]benzonitrile], with > 1000 nM; and `C[C@@H](c1ccccc1)n1c(=O)[nH]c2ncc(-c3cccc(CO)c3)nc21` [Compound 7, 6-(3-Hydroxymethylphenyl)-1-((S)-(−)-1-phenylethyl)-1,3-dihydro-imidazo[4,5-b]pyrazin-2-one], with 500 to 1000 nM.
Under `C[C@@H](c1ccccc1)n1c(=O)[nH]c2ncc(-c3cc4ccccc4[nH]3)nc21` [Compound 8, 6-(1H-Indol-2-yl)-1-((S)-(−)-1-phenylethyl)-1,3-dihydro-imidazo[4,5-b]pyrazin-2-one] stands > 1000 nM; under `O=c1[nH]c2ncc(-c3cccnc3)nc2n1Cc1ccccc1` [Compound 9, 1-Benzyl-6-pyridin-3-yl-1,3-dihydroimidazo[4,5-b]pyrazin-2-one], > 1000 nM; under `COc1ccc(-c2cnc3[nH]c(=O)n(Cc4ccccc4)c3n2)cc1OC` [Compound 10, 1-Benzyl-6-(3,4-dimethoxyphenyl)-1,3-dihydroimidazo[4,5-b]pyrazin-2-one], 500 to 1000 nM.
In the case of `COc1ccc(-c2cnc3[nH]c(=O)n(Cc4ccccc4)c3n2)cn1` [Compound 11, 1-Benzyl-6-(6-methoxypyridin-3-yl)-1,3-dihydroimidazo[4,5-b]pyrazin-2-one], the half-inhibitory concentration (IC50) was > 1000 nM.
Under `COCc1cccc(-c2cnc3[nH]c(=O)n(Cc4ccccc4)c3n2)c1` [Compound 12, 1-Benzyl-6-(3-methoxymethylphenyl)-1,3-dihydroimidazo[4,5-b]pyrazin-2-one] stands > 1000 nM.
Under `CC(=O)c1cccc(-c2cnc3[nH]c(=O)n(Cc4ccccc4)c3n2)c1` [Compound 13, 6-(3-Acetylphenyl)-1-benzyl-1,3-dihydroimidazo[4,5-b]pyrazin-2-one] stands > 1000 nM; under `COc1ccc(-c2cnc3[nH]c(=O)n(Cc4ccccc4)c3n2)c(OC)c1` [Compound 14, 1-Benzyl-6-(2,4-dimethoxyphenyl)-1,3-dihydroimidazo[4,5-b]pyrazin-2-one], > 1000 nM; under `O=c1[nH]c2ncc(-c3ccsc3)nc2n1Cc1ccccc1` [Compound 15, 1-Benzyl-6-thiophen-3-yl-1,3-dihydroimidazo[4,5-b]pyrazin-2-one], > 1000 nM.
Then `O=c1[nH]c2ncc(-c3cccs3)nc2n1Cc1ccccc1` [Compound 16, 1-Benzyl-6-thiophen-2-yl-1,3-dihydroimidazo[4,5-b]pyrazin-2-one], with > 1000 nM; and `COc1cccc(-c2cnc3[nH]c(=O)n(Cc4ccccc4)c3n2)c1` [Compound 17, 1-Benzyl-6-(3-methoxyphenyl)-1,3-dihydroimidazo[4,5-b]pyrazin-2-one], with > 1000 nM; and `O=C(O)c1cccc(-c2cnc3[nH]c(=O)n(Cc4ccccc4)c3n2)c1` [Compound 18, 3-(3-Benzyl-2-oxo-2,3-dihydro-1H-imidazo[4,5-b]pyrazin-5-yl)benzoic acid], with 500 to 1000 nM.
As for `COc1cc(-c2cnc3[nH]c(=O)n(Cc4ccccn4)c3n2)cc(OC)c1OC` [Compound 19, 1-Pyridin-2-ylmethyl-6-(3,4,5-trimethoxyphenyl)-1,3-dihydroimidazo[4,5-b]pyrazin-2-one], the IC50 lay within 500 to 1000 nM.
Under `COc1cc(-c2cnc3[nH]c(=O)n(Cc4cccnc4)c3n2)cc(OC)c1OC` [Compound 20, 1-Pyridin-3-yl methyl-6-(3,4,5-trimethoxyphenyl)-1,3-dihydroimidazo-[4,5-b]pyrazin-2-one] stands < 500 nM.
On to `COc1cc(OC)cc(-c2cnc3[nH]c(=O)n(Cc4ccccc4)c3n2)c1` [Compound 21, 1-Benzyl-6-(3,5-dimethoxyphenyl)-1,3-dihydro-imidazo[4,5-b]pyrazin-2-one], for which the IC50 was > 1000 nM.
Then `COc1ccc(-c2cnc3[nH]c(=O)n(Cc4ccccc4)c3n2)cc1C=O` [Compound 22, 5-(3-Benzyl-2-oxo-2,3-dihydro-1H-imidazo[4,5-b]pyrazin-5-yl)-2-methoxybenzaldehyde], with > 1000 nM; and `COc1ccc(-c2cnc3[nH]c(=O)n(Cc4ccccc4)c3n2)cc1C(=O)O` [Compound 23, 5-(3-Benzyl-2-oxo-2,3-dihydro-1H-imidazo[4,5-b]pyrazin-5-yl)-2-methoxybenzoic acid], with < 500 nM.
Then `COc1ccc(-c2cnc3[nH]c(=O)n(Cc4ccccc4)c3n2)cc1CO` [Compound 24, 1-Benzyl-6-(3-hydroxymethyl-4-methoxyphenyl)-1,3-dihydro-imidazo[4,5-b]pyrazin-2-one], with > 1000 nM.
Consider `O=C(O)c1cc(-c2cnc3[nH]c(=O)n(Cc4ccccc4)c3n2)ccc1O` [Compound 25, 5-(3-Benzyl-2-oxo-2,3-dihydro-1H-imidazo[4,5-b]pyrazin-5-yl)-2-hydroxybenzoic acid], for which the IC50 lay within 500 to 1000 nM.
Under `COc1ccc(-c2cnc3[nH]c(=O)n(Cc4ccccc4)c3n2)cc1C(N)=O` [Compound 26, 5-(3-Benzyl-2-oxo-2,3-dihydro-1H-imidazo[4,5-b]pyrazin-5-yl)-2-methoxybenzamide] stands > 1000 nM; under `COc1cc(-c2cnc3[nH]c(=O)n(Cc4cccc([N+](=O)[O-])c4)c3n2)cc(OC)c1OC` [Compound 27, 1-(3-Nitrobenzyl)-6-(3,4,5-trimethoxyphenyl)-1,3-dihydroimidazo[4,5-b]pyrazin-2-one], > 1000 nM; under `COc1cc(-c2cnc3[nH]c(=O)n(Cc4ccc(Cl)cc4)c3n2)cc(OC)c1OC` [Compound 28, 1-(4-Chlorobenzyl)-6-(3,4,5-trimethoxyphenyl)-1,3-dihydro-imidazo[4,5-b]pyrazin-2-one], 500 to 1000 nM.
Then `COc1cc(-c2cnc3[nH]c(=O)n(Cc4cccc(Cl)c4)c3n2)cc(OC)c1OC` [Compound 29, 1-(3-Chlorobenzyl)-6-(3,4,5-trimethoxyphenyl)-1,3-dihydro-imidazo[4,5-b]pyrazin-2-one], with < 500 nM.
